Experimental data: patent US20250255304A1, “HIGHLY TRA[…] CONTROLLING COMPOSITION” (ZM Crop Protection Corporation, priority 2022, published 2025)

Legend:
Assay type in all cases: in vivo
[1] = test system: Coptotermes formosanus Shiraki; assay: Test Example 2: primary transmission treatment effect; details: Table 3, dicloromezotiaz 0.023%, fipronil 0.03%, imidacloprid 0.10%, chlorantraniliprole 0.05% solution in soil
Method: (§1) A test agent solution containing 0.023 parts of dicloromezotiaz was prepared by adding 99.875 parts of water to 0.125 parts of the aqueous suspension composition shown in Formulation Example 1. As comparative examples, four types of commercially available neonicotinoid termite controlling agents and four types of slow-acting termite controlling agents shown in Table 2 were diluted with water at practical concentrations to prepare test agent solutions. The “agent concentration (%)” indicates the concentration of the active ingredient contained in each of the composition of the present invention and the termite controlling agents and the “test agent solution concentration (%)” indicates the concentration of the active ingredient in each of the prepared test agent solutions.
(§2) After 1.2 g of each of the test agent solutions of the example and the comparative examples diluted to a predetermined concentration and prepared was added to 4.8 g of soil, 6 g of the mixed soil was spread in a glass petri dish having a diameter of 50 mm and ten workers of Coptotermes formosanus Shiraki were released into the petri dish and exposed to the agent solution for 4 hours.

[2] = test system: Coptotermes formosanus Shiraki; assay: Test Example 3: extirpation test with dust formulation using simulated termite trails; details: active ingredient concentration 0.5%
[3] = test system: Coptotermes formosanus Shiraki; assay: Test Example 1: effect of agent on gypsum treated with test agent solution; details: dicloromezotiaz 0.023%, imidacloprid 0.1%, fipronil 0.03% test agent solution on gypsum
Method: A test agent solution containing 0.023 parts of dicloromezotiaz was prepared by adding 99.875 parts of water to 0.125 parts of the aqueous suspension composition shown in Formulation Example 1.
In a comparative example, an aqueous suspension composition prepared by adding an agent solution, wherein 99 parts of water was added to 1 part of a flowable containing 10.0 parts of imidacloprid and which contained 0.1 parts of imidacloprid and a drug solution, wherein 299 parts of water was added to 1 part of a flowable containing 9.1 parts of fipronil and which contained 0.03 parts of fipronil, uniformly mixing same was used as a test agent solution of a comparative example.
As the imidacloprid formulation and the fipronil formulation, commercially available termite controlling agents were used and diluted solutions at practical agent concentrations thereof were used as test agent solutions.
Gypsum was cured and spread in a glass petri dish having a diameter of 90 mm, 15 ml of each of the test agent solution of the example and the test agent solution of the comparative example was uniformly dropped on the entire surface of the gypsum. Thereafter, ten workers of Coptotermes formosanus Shiraki were released into the petri dish and the petri dish was covered and left to stand in a thermostatic chamber (25° C./relative humidity 60%).
The number of abnormal termites and the number of dead termites among the released termites (Coptotermes formosanus Shiraki) were observed every one hour from immediately after the release of the termites (Coptotermes formosanus Shiraki) until ten hours passed and the total number of the abnormal termite rate and the dead termite rate was calculated as the abnormal or dead termite rate (%) according to [Expression 1] below and the rates of expression of the effects of the respective agents were compared. Each test agent was prepared in one petri dish as one plot and the test was carried out in two replicates.

[4] = test system: Coptotermes formosanus Shiraki; assay: Test Example 2: secondary transmission treatment effect; details: Table 5, dicloromezotiaz 0.023%, fipronil 0.03%, imidacloprid 0.10%, chlorantraniliprole 0.05% solution in soil
Method: as §1, §2

N#Cc1nn(-c2c(Cl)cc(C(F)(F)F)cc2Cl)c(N)c1[S+]([O-])C(F)(F)F (stereo not shown) [Fipronil]
Abnormal or dead termite rate (%) ([1]; after 1 day): 82%
Abnormal or dead termite rate (%) ([1]; after 3 days): 95%
Abnormal or dead termite rate (%) ([1]; after 7 days): 100%
Abnormal or dead termite rate (%) ([1]; after 14 days): 100%
Abnormal or dead termite rate (%) ([1]; after 21 days): 100%
Abnormal or dead termite rate (%) ([2]; 1 h): 0%
Abnormal or dead termite rate (%) ([2]; 2 h): 5%
Abnormal or dead termite rate (%) ([2]; 3 h): 50%
Abnormal or dead termite rate (%) ([2]; 4 h): 95%
Abnormal or dead termite rate (%) ([2]; 5 h): 95%
Abnormal or dead termite rate (%) ([2]; 6 h): 100%
Abnormal or dead termite rate (%) ([2]; 7 h): 100%
Abnormal or dead termite rate (%) ([2]; 1 day): 100%
Abnormal or dead termite rate (%) ([2]; 2 days): 100%
Abnormal or dead termite rate (%) ([2]; 3 days): 100%
Abnormal or dead termite rate (%) ([2]; 7 days): 100%
Abnormal or dead termite rate (%) ([3]; time elapsed 1 h): 18%
Abnormal or dead termite rate (%) ([3]; time elapsed 2 h): 36%
Abnormal or dead termite rate (%) ([3]; time elapsed 3 h): 52%
Abnormal or dead termite rate (%) ([3]; time elapsed 4 h): 100%
Abnormal or dead termite rate (%) ([3]; time elapsed 5 h): 100%
Abnormal or dead termite rate (%) ([3]; time elapsed 6 h): 100%
Abnormal or dead termite rate (%) ([3]; time elapsed 7 h): 100%
Abnormal or dead termite rate (%) ([3]; time elapsed 8 h): 100%
Abnormal or dead termite rate (%) ([3]; time elapsed 9 h): 100%
Abnormal or dead termite rate (%) ([3]; time elapsed 10 h): 100%
Abnormal or dead termite rate (%) ([4]; after 1 day): 0%
Abnormal or dead termite rate (%) ([4]; after 3 days): 0%
Abnormal or dead termite rate (%) ([4]; after 7 days): 19%
Abnormal or dead termite rate (%) ([4]; after 14 days): 30%
Abnormal or dead termite rate (%) ([4]; after 21 days): 31%
